Assays:
Assay in all cases: cells
SW1463 = assay type: functional, cell-based, Homo sapiens; conditions: Homo sapiens, SW1463;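 also: growth inhibition of SW1463 cells, determined with a cell viability assay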
Description: SANGER: Inhibition of human SW1463 cell growth in a cell viability assay.

HT-144 = assay type: functional, cell-based, Homo sapiens; conditions: Homo sapiens, HT-144
Description: SANGER: Inhibition of human HT-144 cell growth in a cell viability assay.

NCI-H441 = assay type: functional, cell-based; conditions: Homo sapiens;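 also: growth inhibition of NCI-H441 cells, read out with a cell viability assay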
Description: SANGER: Inhibition of human NCI-H441 cell growth in a cell viability assay.

U-118-MG = assay type: functional, cell-based, Homo sapiens; conditions: Homo sapiens, U-118-MG
Description: SANGER: Inhibition of human U-118-MG cell growth in a cell viability assay.

SW1710 = assay type: functional, cell-based, Homo sapiens; conditions: Homo sapiens, SW1710;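 also: growth inhibition of SW1710 cells, determined with a cell viability assay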
Description: SANGER: Inhibition of human SW1710 cell growth in a cell viability assay.

SW1088 = assay type: functional, cell-based, Homo sapiens; conditions: Homo sapiens, SW1088;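 also: growth inhibition of human SW1088 cells, read out by a cell viability assay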
Description: SANGER: Inhibition of human SW1088 cell growth in a cell viability assay.

769-P = assay type: functional, cell-based, Homo sapiens; conditions: Homo sapiens, 769-P
Description: SANGER: Inhibition of human 769-P cell growth in a cell viability assay.

SK-MEL3 = assay type: functional, cell-based, Homo sapiens, SK-MEL-3; conditions: Homo sapiens, SK-MEL3;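 also: growth inhibition of human SK-MEL-3 cells, read out with a cell viability assay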
Description: SANGER: Inhibition of human SK-MEL-3 cell growth in a cell viability assay.

CAL-27 = assay type: functional, cell-based, Homo sapiens; conditions: Homo sapiens, CAL-27;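 also: Viability-based readout, IC50 reflecting inhibition of CAL-27 cell growth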
Description: SANGER: Inhibition of human CAL-27 cell growth in a cell viability assay.

VM-CUB-1 = assay type: functional, cell-based; conditions: Homo sapiens;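 also: cell viability assay measuring growth inhibition of the human VM-CUB-1 cell line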
Description: SANGER: Inhibition of human VM-CUB-1 cell growth in a cell viability assay.

NCI-H2052 = assay type: functional, cell-based, Homo sapiens; conditions: Homo sapiens, NCI-H2052;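 also: growth inhibition of NCI-H2052 cells, read out with a cell viability assay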
Description: SANGER: Inhibition of human NCI-H2052 cell growth in a cell viability assay.

CW-2 = assay type: functional, cell-based, Homo sapiens; conditions: Homo sapiens, CW-2;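 also: growth inhibition of CW-2 cells, read out by a cell viability assay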
Description: SANGER: Inhibition of human CW-2 cell growth in a cell viability assay.

HCT-116 = assay type: functional, cell-based, Homo sapiens; conditions: Homo sapiens, HCT-116
Description: SANGER: Inhibition of human HCT-116 cell growth in a cell viability assay.

HOS = assay type: functional, cell-based, Homo sapiens; conditions: Homo sapiens, HOS;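 also: growth inhibition of human HOS cells, read out with a cell viability assay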
Description: SANGER: Inhibition of human HOS cell growth in a cell viability assay.

SK-MES-1 = assay type: functional, cell-based, Homo sapiens; conditions: Homo sapiens, SK-MES-1;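 also: growth inhibition of human SK-MES-1 cells, read out with a cell viability assay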
Description: SANGER: Inhibition of human SK-MES-1 cell growth in a cell viability assay.

NCI-H69 = assay type: functional, cell-based; conditions: Homo sapiens;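 also: growth inhibition of the cell line, read out with a cell viability assay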
Description: SANGER: Inhibition of human NCI-H69 cell growth in a cell viability assay.

ML-2 = assay type: functional, cell-based; conditions: Homo sapiens;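 also: growth inhibition of ML-2 cells, measured with a cell viability readout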
Description: SANGER: Inhibition of human ML-2 cell growth in a cell viability assay.

KU-19-19 = assay type: functional, cell-based, Homo sapiens; conditions: Homo sapiens, KU-19-19
Description: SANGER: Inhibition of human KU-19-19 cell growth in a cell viability assay.

NCI-H510A = assay type: functional, cell-based; conditions: Homo sapiens;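 also: growth inhibition of NCI-H510A cells, read out with a cell viability assay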
Description: SANGER: Inhibition of human NCI-H510A cell growth in a cell viability assay.

EW-3 = assay type: functional, cell-based; conditions: Homo sapiens;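 also: cell viability assay read-out, IC50 reflects inhibition of growth of the EW-3 cells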
Description: SANGER: Inhibition of human EW-3 cell growth in a cell viability assay.

CAS-1 = assay type: functional, cell-based, Homo sapiens; conditions: Homo sapiens, CAS-1;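 also: growth inhibition of CAS-1 cells, measured with a cell viability assay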
Description: SANGER: Inhibition of human CAS-1 cell growth in a cell viability assay.

LS-513 = assay type: functional, cell-based, Homo sapiens; conditions: Homo sapiens, LS-513
Description: SANGER: Inhibition of human LS-513 cell growth in a cell viability assay.

SK-MEL-24 = assay type: functional, cell-based; conditions: Homo sapiens;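 also: growth inhibition read out by a cell viability assay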
Description: SANGER: Inhibition of human SK-MEL-24 cell growth in a cell viability assay.

L-428 = assay type: functional, cell-based; conditions: Homo sapiens
Description: SANGER: Inhibition of human L-428 cell growth in a cell viability assay.

NB10 = assay type: functional, cell-based, Homo sapiens; conditions: Homo sapiens, NB10;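 also: growth inhibition of NB10 cells, read out by a cell viability assay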
Description: SANGER: Inhibition of human NB10 cell growth in a cell viability assay.

639-V = assay type: functional, cell-based, Homo sapiens; conditions: Homo sapiens, 639-V;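 also: growth inhibition of 639-V cells, read out with a cell viability assay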
Description: SANGER: Inhibition of human 639-V cell growth in a cell viability assay.

5637 = assay type: functional, cell-based, Homo sapiens; conditions: Homo sapiens
Description: SANGER: Inhibition of human 5637 cell growth in a cell viability assay.

NB6 = assay type: functional, cell-based, Homo sapiens; conditions: Homo sapiens, NB6
Description: SANGER: Inhibition of human NB6 cell growth in a cell viability assay.

Detroit 562 = assay type: functional, cell-based, Homo sapiens; conditions: Homo sapiens, Detroit 562;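 also: growth inhibition of human Detroit 562 cells, read out by a cell viability assay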
Description: SANGER: Inhibition of human Detroit562 cell growth in a cell viability assay.

SK-MEL-30 = assay type: functional, cell-based; conditions: Homo sapiens;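 also: growth inhibition of SK-MEL-30 cells, determined with a cell viability assay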
Description: SANGER: Inhibition of human SK-MEL-30 cell growth in a cell viability assay.

KP-N-YN = assay type: functional, cell-based; conditions: Homo sapiens;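 also: growth inhibition of KP-N-YN cells, read out with a cell viability assay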
Description: SANGER: Inhibition of human KP-N-YN cell growth in a cell viability assay.

COLO-678 = assay type: functional, cell-based, Homo sapiens; conditions: Homo sapiens, COLO-678
Description: SANGER: Inhibition of human COLO-678 cell growth in a cell viability assay.

GAK = assay type: functional, cell-based, Homo sapiens; conditions: Homo sapiens, GAK;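 also: cell growth inhibition read out by a cell viability assay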
Description: SANGER: Inhibition of human GAK cell growth in a cell viability assay.

NCI-H1650 = assay type: functional, cell-based, Homo sapiens; conditions: Homo sapiens, NCI-H1650;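 also: growth inhibition of human NCI-H1650 cells measured by a cell viability assay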
Description: SANGER: Inhibition of human NCI-H1650 cell growth in a cell viability assay.

NB13 = assay type: functional, cell-based, Homo sapiens; conditions: Homo sapiens, NB13;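 also: cell viability readout measuring growth inhibition of human NB13 cells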
Description: SANGER: Inhibition of human NB13 cell growth in a cell viability assay.

GOTO = assay type: functional, cell-based, Homo sapiens; conditions: Homo sapiens, GOTO;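 also: growth inhibition of GOTO cells, read out by a cell viability assay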
Description: SANGER: Inhibition of human GOTO cell growth in a cell viability assay.

HPAF-II = assay type: functional, cell-based, Homo sapiens; conditions: Homo sapiens, HPAF-II;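 also: growth inhibition of HPAF-II cells, read out with a cell viability assay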
Description: SANGER: Inhibition of human HPAF-II cell growth in a cell viability assay.

L-363 = assay type: functional, cell-based; conditions: Homo sapiens
Description: SANGER: Inhibition of human L-363 cell growth in a cell viability assay.

HCC38 = assay type: functional, cell-based, Homo sapiens; conditions: Homo sapiens, HCC38;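 also: cell viability assay on the human HCC38 cell line, with IC50 marking the concentration that inhibits cell growth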
Description: SANGER: Inhibition of human HCC38 cell growth in a cell viability assay.

JEG-3 = assay type: functional, cell-based, Homo sapiens; conditions: Homo sapiens, JEG-3;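 also: growth inhibition of human JEG-3 cells, read out with a cell viability assay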
Description: SANGER: Inhibition of human JEG-3 cell growth in a cell viability assay.

COLO-320-HSR = assay type: functional, cell-based; conditions: Homo sapiens;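 also: growth inhibition of COLO-320-HSR cells, determined with a cell viability assay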
Description: SANGER: Inhibition of human COLO-320-HSR cell growth in a cell viability assay.

FTC-133 = assay type: functional, cell-based, Homo sapiens; conditions: Homo sapiens, FTC-133
D-542MG = assay type: functional, cell-based, Homo sapiens; conditions: Homo sapiens, D-542MG
Description: SANGER: Inhibition of human D-542MG cell growth in a cell viability assay.

C3A = assay type: functional, cell-based, Homo sapiens; conditions: Homo sapiens, C3A;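 also: growth inhibition of C3A human cells, quantified with a cell viability readout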
Description: SANGER: Inhibition of human C3A cell growth in a cell viability assay.

T47D = assay type: functional, cell-based, Homo sapiens; conditions: Homo sapiens, T47D;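 also: growth inhibition of human T47D cells, measured with a cell viability assay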
Description: SANGER: Inhibition of human T47D cell growth in a cell viability assay.

QIMR-WIL = assay type: functional, cell-based; conditions: Homo sapiens;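 also: growth inhibition of QIMR-WIL cells, read out with a cell viability assay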
Description: SANGER: Inhibition of human QIMR-WIL cell growth in a cell viability assay.

MFE-280 = assay type: functional, cell-based, Homo sapiens; conditions: Homo sapiens, MFE-280;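 also: growth inhibition of MFE-280 cells, determined with a cell viability readout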
Description: SANGER: Inhibition of human MFE-280 cell growth in a cell viability assay.

NB69 = assay type: functional, cell-based, Homo sapiens; conditions: Homo sapiens, NB69;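 also: growth inhibition of NB69 cells, determined by a cell viability assay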
Description: SANGER: Inhibition of human NB69 cell growth in a cell viability assay.

NCI-H526 = assay type: functional, cell-based; conditions: Homo sapiens;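 also: growth inhibition of the human NCI-H526 cell line, measured by a cell viability assay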
Description: SANGER: Inhibition of human NCI-H526 cell growth in a cell viability assay.

UMUC3 = assay type: functional, cell-based, Homo sapiens; conditions: Homo sapiens, UMUC3;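 also: growth inhibition of human UM-UC-3 cells, read out with a cell viability assay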
Description: SANGER: Inhibition of human UM-UC-3 cell growth in a cell viability assay.

SCH = assay type: functional, cell-based, Homo sapiens; conditions: Homo sapiens, SCH;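 also: growth inhibition of human SCH cells, read out in a cell viability assay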
Description: SANGER: Inhibition of human SCH cell growth in a cell viability assay.

SMILES: O=C(NOCC1CC1)c1ccc(F)c(F)c1Nc1ccc(I)cc1Cl [CI-1040]
- IC50 (SW1463): 1.34 µM
- IC50 (HT-144): 0.647 µM
- IC50 (NCI-H441): > 10 µM
- IC50 (U-118-MG): > 10 µM
- IC50 (SW1710): 5.62 µM
- IC50 (SW1088): 6.92 µM
- IC50 (769-P): > 10 µM
- IC50 (SK-MEL3): 3.85 µM
- IC50 (CAL-27): 2.39 µM
- IC50 (VM-CUB-1): > 10 µM
- IC50 (NCI-H2052): > 10 µM
- IC50 (CW-2): > 10 µM
- IC50 (HCT-116): 6.81 µM
- IC50 (HOS): 5.63 µM
- IC50 (SK-MES-1): 5.84 µM
- IC50 (NCI-H69): > 10 µM
- IC50 (ML-2): 1.53 µM
- IC50 (KU-19-19): 3.17 µM
- IC50 (NCI-H510A): > 10 µM
- IC50 (EW-3): > 10 µM
- IC50 (CAS-1): > 10 µM
- IC50 (LS-513): 1.45 µM
- IC50 (SK-MEL-24): 0.328 µM
- IC50 (L-428): > 10 µM
- IC50 (NB10): 5.89 µM
- IC50 (639-V): 9.64 µM
- IC50 5637: > 10 µM
- IC50 (NB6): > 10 µM
- IC50 (Detroit 562): > 10 µM
- IC50 (SK-MEL-30): 7.25 µM
- IC50 (KP-N-YN): > 10 µM
- IC50 (COLO-678): 7.71 µM
- IC50 (GAK): 3.33 µM
- IC50 (NCI-H1650): > 10 µM
- IC50 (NB13): > 10 µM
- IC50 (GOTO): > 10 µM
- IC50 (HPAF-II): 3.75 µM
- IC50 (L-363): 2.74 µM
- IC50 (HCC38): > 10 µM
- IC50 (JEG-3): > 10 µM
- IC50 (COLO-320-HSR): > 10 µM
- IC50 (FTC-133): > 10 µM
- IC50 (D-542MG): > 10 µM
- IC50 (C3A): > 10 µM
- IC50 (T47D): > 10 µM
- IC50 (QIMR-WIL): > 10 µM
- IC50 (MFE-280): 6.86 µM
- IC50 (NB69): 1.78 µM
- IC50 (NCI-H526): > 10 µM
- IC50 (UMUC3): 5.18 µM
- IC50 (SCH): > 10 µM

SMILES: Cn1cc(C2=C(c3ccc(Cl)cc3Cl)C(=O)NC2=O)c2ccccc21 [SB-216763]
- IC50 (SW1463): > 10 µM
- IC50 (HT-144): > 10 µM
- IC50 (NCI-H441): > 10 µM
- IC50 (U-118-MG): > 10 µM
- IC50 (SW1710): > 10 µM
- IC50 (SW1088): > 10 µM
- IC50 (769-P): > 10 µM
- IC50 (SK-MEL3): > 10 µM
- IC50 (CAL-27): > 10 µM
- IC50 (VM-CUB-1): > 10 µM
- IC50 (NCI-H2052): > 10 µM
- IC50 (CW-2): > 10 µM
- IC50 (HCT-116): > 10 µM
- IC50 (HOS): > 10 µM
- IC50 (SK-MES-1): > 10 µM
- IC50 (ML-2): > 10 µM
- IC50 (KU-19-19): > 10 µM
- IC50 (NCI-H510A): > 10 µM
- IC50 (CAS-1): > 10 µM
- IC50 (LS-513): > 10 µM
- IC50 (SK-MEL-24): > 10 µM
- IC50 (L-428): > 10 µM
- IC50 (NB10): > 10 µM
- IC50 (639-V): > 10 µM
- IC50 5637: > 10 µM
- IC50 (NB6): > 10 µM
- IC50 (Detroit 562): > 10 µM
- IC50 (SK-MEL-30): > 10 µM
- IC50 (KP-N-YN): > 10 µM
- IC50 (COLO-678): > 10 µM
- IC50 (GAK): > 10 µM
- IC50 (NCI-H1650): > 10 µM
- IC50 (NB13): > 10 µM
- IC50 (GOTO): > 10 µM
- IC50 (HPAF-II): > 10 µM
- IC50 (L-363): > 10 µM
- IC50 (HCC38): > 10 µM
- IC50 (JEG-3): > 10 µM
- IC50 (COLO-320-HSR): > 10 µM
- IC50 (FTC-133): > 10 µM
- IC50 (D-542MG): > 10 µM
- IC50 (C3A): > 10 µM
- IC50 (T47D): > 10 µM
- IC50 (QIMR-WIL): > 10 µM
- IC50 (MFE-280): > 10 µM
- IC50 (NB69): > 10 µM
- IC50 (NCI-H526): 0.0489 µM
- IC50 (UMUC3): > 10 µM
- IC50 (SCH): > 10 µM
